Data reported in patent publication US11959083B2, “Immunosuppression-reverting oligonucleotides inhibiting the expression of CD39” (Secarna Pharmaceuticals GmbH & Co. KG, priority 2016, dated 2024).
l = locked nucleic acid (LNA); d = 2'-deoxy (DNA)

Key:
mCD39 mRNA [1] = assay: In vivo mCD39 mRNA knockdown in spleens of C57BL/6 mice; parameters: species or system mouse; settings: day 26, compared to neg 1 treated mice
Method: FIGS. 15A and 15B depict CD39 mRNA expression levels in spleens from C57BL/6 mice treated by subcutaneous injections of either A04011MR or the negative control oligonucleotide neg1 at doses of 25 mg/kg or 10 mg/kg on days 1, 2, 3, 4, 5, 9, 12, 16, and 19 (5 mice/group). Expression values were normalized to expression values of the housekeeping gene HPRT1.
The potent mCD39 ASO A04011MR was selected and its in vivo knockdown capacity in C57BL/6 mice was analyzed. C57BL/6 mice were treated by subcutaneous injections of either A04011MR or the negative control oligonucleotide neg1 at doses of 25 mg/kg or 10 mg/kg on days 1, 2, 3, 4, 5, 9, 12, 16, and 19 (5 mice/group). Seven days after the last ASO treatment (day 26), mice were sacrificed and spleens were sampled for CD39 mRNA analysis. The results depicted in FIG. 15 show CD39 mRNA expression levels in spleens of A04011MR or neg1-treated mice.

mCD39 protein = assay: In vivo mCD39 protein knockdown in tumor-infiltrating immune cells, syngeneic MC38 mouse tumor model; settings: MC38 tumor-bearing C57BL/6 mice, 20, 10, 5 mg/kg subcutaneous, day 16, compared to the controls
Method: FIGS. 16A and 16B show CD39 protein expression on tumor infiltrating regulatory T cells (Tregs) (FIG. 16A) and tumor associated macrophages (TAMs) (FIG. 16B) from oligonucleotide-treated mice in relation to tumors of untreated mice.
The potent mCD39 antisense oligonucleotide A04011MR was selected and its in vivo knockdown capacity in a subcutaneous syngeneic murine tumor model was analyzed. Therefore, 5×10^5 MC38 wt tumor cells were injected subcutaneously into C57BL/6 mice. Once tumors reached sizes between 50-70 mm^3, mice were treated systemically by subcutaneous injections with different doses of A04011MR (20 mg/kg; 10 mg/kg; 5 mg/kg) or with the negative control oligonucleotide neg1 (20 mg/kg) on days 1, 2, 3, 4, 5, 9, and 12 (4 mice/per group). As additional control, MC-38 tumor-bearing mice were left untreated. Four days after the last treatment with antisense oligonucleotide (day 16), tumors were isolated in order to analyze CD39 protein expression in subtypes of tumor-infiltrating immune cells using flow cytometry. FIGS. 16A and 16B depict CD39 protein expression on tumor-infiltrating regulatory T cells (Tregs) (FIG. 16A) and tumor associated macrophages (TAMs) (FIG. 16B) from oligonucleotide-treated mice in relation to tumors of untreated mice.

mCD39 mRNA [2] = assay: mCD39 mRNA knockdown efficacy screen in A20 cells (single dose, gymnotic delivery, QuantiGene Singleplex); format: cell-based, mouse; settings: 10 μM, three days, normalized to HPRT1
Method: FIG. 14-1 and 14-2 show mCD39 mRNA knockdown efficacy of mCD39 antisense oligonucleotides in the murine cancer cell line A20 (mouse B cell lymphoma). A20 cells were treated with a single dose of 10 μM of the respective antisense oligonucleotide. As negative control, cells were treated with neg1, an antisense oligonucleotide having the sequence CGTTTAGGCTATGTACTT (SEQ ID NO:99). Residual mCD39 mRNA expression relative to untreated cells is depicted. Expression values were normalized to expression of the housekeeping gene HPRT1.
In order to analyze the efficacy of mCD39 antisense oligonucleotides with regard to the knockdown of mCD39 mRNA expression in a cancer cell line, A20 (mouse B cell lymphoma, ATCC) cells were treated with a single dose (concentration: 10 μM without addition of any transfection reagent; this process is called gymnotic delivery) of the respective antisense oligonucleotide as indicated in FIG. 14. As control, cells were treated with neg1, an antisense oligonucleotide having the sequence CGTTTAGGCTATGTACTT (SEQ ID NO:99). mCD39 and HPRT1 mRNA expression was analyzed after three days using the QuantiGene Singleplex assay (Affymetrix) and mCD39 expression values were normalized to HPRT1 expression values.

human CD8+ T cells = assay: Proliferation and absolute cell numbers of human CD8+ T cells in presence or absence of extracellular ATP; format: cell-based; settings: 5 μM oligonucleotide 5 days or 20 μM ARL67156 24 h
Method: FIG. 12A-12C depict human CD8^+ T cells which were labelled with cell proliferation dye, activated with anti-CD3 and treated with 5 μM of the antisense oligonucleotide A04040H (black column) or the control oligonucleotide S6 (white column) for a total treatment time of 5 days. In the vehicle control (striped column), cells were activated with anti-CD3 only. Subsequently, 400 μM of ATP or vehicle were added to cells on day 3 and day 4 after start of oligonucleotide treatment. Furthermore, as additional control, the small molecular CD39-inhibitor ARL67156 trisodium salt was added at 20 μM to cells on day 4, for an incubation time of 24 h (checked column). On day 5 after start of oligonucleotide treatment, (FIG. 12A) CD39 protein expression, (FIG. 12B) proliferation and (FIG. 12C) absolute cell numbers of CD8^+ T cells were analyzed using Flow Cytometry. Depicted is the mean of triplicate wells+/−SD.
In cancer, ATP is released from tumor cells for example after cell death induced by chemotherapy or radiation therapy. Since the CD39-CD73 axis plays an important role for T cell function the effects of A04040H on T cell proliferation in the presence or absence of extracellular ATP were investigated. Human CD8^+ T cells were labelled with cell proliferation dye, activated with anti-CD3 and treated with 5 μM of the antisense oligonucleotide A04040H or the control oligonucleotide S6 for a total treatment time of 5 days. In the vehicle control, cells were activated with anti-CD3 only. Subsequently, 400 μM of ATP or vehicle were added to cells on day 3 and day 4 after start of oligonucleotide treatment. Furthermore, as additional control, the small molecular CD39-inhibitor ARL67156 trisodium salt was added at 20 μM to cells on day 4 for an incubation time of 24 h. On day 5 after start of oligonucleotide treatment, CD39 protein expression, proliferation, and absolute cell numbers of CD8^+ T cells were analyzed using Flow Cytometry.

hCD39 = target: T1, hCD39 (Homo sapiens, UniProt P49961); assay: ATP degradation in JIYOYE cells after hCD39 knockdown (ATP Bioluminescence Assay); format: cell-based; settings: 5 μM oligonucleotide 6 days or 20 μM ARL67156 1 h; 2 μM ATP added
T1 construct: endogenous in cells; host or cells: JIYOYE cells
T1 sequence (P49961 1-510): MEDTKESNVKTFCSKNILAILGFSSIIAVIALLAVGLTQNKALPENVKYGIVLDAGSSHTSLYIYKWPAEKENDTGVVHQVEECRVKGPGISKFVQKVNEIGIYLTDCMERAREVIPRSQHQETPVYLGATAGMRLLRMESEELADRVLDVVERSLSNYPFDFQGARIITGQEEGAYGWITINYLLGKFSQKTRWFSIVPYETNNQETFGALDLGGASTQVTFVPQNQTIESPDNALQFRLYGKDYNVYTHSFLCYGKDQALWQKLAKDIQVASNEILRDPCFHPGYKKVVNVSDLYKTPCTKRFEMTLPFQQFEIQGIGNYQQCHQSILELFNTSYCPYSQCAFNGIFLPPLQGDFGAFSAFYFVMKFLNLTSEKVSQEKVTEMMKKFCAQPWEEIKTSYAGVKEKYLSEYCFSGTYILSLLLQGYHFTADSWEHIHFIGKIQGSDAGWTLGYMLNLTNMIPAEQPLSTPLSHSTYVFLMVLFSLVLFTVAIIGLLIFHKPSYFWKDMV
Method: FIG. 10A-10C depict effects of hCD39 knockdown on viability and ATP concentration in JIYOYE cells. JIYOYE cells were treated with the indicated antisense oligonucleotide A04040H (SEQ ID No.3) or neg1 for 6 days in total at 5 μM. Medium was replaced with fresh oligonucleotide-containing medium after 3 days and hCD39 protein knockdown efficacy was analyzed on day 6 by flow cytometry. Residual hCD39 expression and viability of oligonucleotide-treated cells is depicted compared to untreated cells (FIG. 10A-10B). After 6 days, 20 μM of the CD39 small molecular inhibitor ARL67156 trisodium salt was added to no ASO treated cells and incubated for 1 h at 37° C. Then, 2 μM of ATP was added to cells or cell culture medium without cells from each condition and ATP concentration of cell supernatants or cell culture medium was determined after 30 min using the ATP Bioluminescence Assay Kit (Roche) (FIG. 10C).
Adenosine is one major immunosuppressive molecule generated during ATP degradation by hCD39. ATP can be detected by an ATP Bioluminescence Assay (ATP Bioluminescence Assay Kit CLS II; Roche). JIYOYE cells were treated with 5 μM antisense oligonucleotide A04040H (SEQ ID No. 3) or the negative control oligonucleotide neg1 for 6 days (3+3). After 3 days, RPMI-1640 medium was replaced with fresh RPMI-1640 medium containing 5 μM of oligonucleotide. Protein knockdown efficacy (FIG. 10A) and viability (FIG. 10B) were analyzed after 6 days by flow cytometry. […] The same day, cells that were not treated with any antisense oligonucleotide were incubated for 1 hr at 37° C. with 20 μM of the CD39 small molecular inhibitor ARL67156 trisodium salt (TOCRIS). Then, 2 μM of ATP was added to cells or cell culture medium without cells derived from each condition and ATP concentration was measured in the cell supernatants or in cell culture medium after 30 min. […] Table 14 presents the effect of hCD39 knockdown on relative ATP levels in the cell culture supernatants of JIYOYE cells: […]

[3] = absence of extracellular ATP, vs vehicle
[4] = supplementation with 400 μM of ATP

In the case of “+A*+G*+T*A*A*T*C*C*A*C*C*C*A*+T*+A*+G (antisense AGTAATCCACCCATAG; sugars from the 5' end l3 d10 l3, all phosphorothioate, methylation of C not given here) [A04011MR]”, the “mCD39 mRNA levels in spleens” value (mCD39 mRNA [1]; 10 mg/kg subcutaneous) is reported as “significantly reduced”, the “mCD39 mRNA levels in spleens” value (mCD39 mRNA [1]; 25 mg/kg subcutaneous) is reported as “significantly reduced” and the “mCD39 protein expression on tumor associated macrophages (TAMs)” value (mCD39 protein) is reported as “dose-dependently suppressed”. The “mCD39 protein expression on tumor-infiltrating regulatory T cells (Tregs)” value (mCD39 protein) was “dose-dependently suppressed” and the “Relative mCD39 mRNA expression (compared to non-treated cells)” value (mCD39 mRNA [2]) was 0.01.

With “+T*+G*+G*C*A*C*T*G*T*T*C*G*T*+A*+G*+T (antisense TGGCACTGTTCGTAGT; sugars from the 5' end l3 d10 l3, all phosphorothioate, methylation of C not given here) [A04015MR]” the “Relative mCD39 mRNA expression (compared to non-treated cells)” value (mCD39 mRNA [2]) was 0.32.

For “+G*+A*+T*C*C*A*A*A*G*C*G*C*+C*+A*+A (antisense GATCCAAAGCGCCAA; sugars from the 5' end l3 d9 l3, all phosphorothioate, methylation of C not given here) [A04002MR]”, the “Relative mCD39 mRNA expression (compared to non-treated cells)” value (mCD39 mRNA [2]) was 0.06.

For “+C*+C*+A*C*T*T*G*T*A*G*A*T*G*+T*+A*+C (antisense CCACTTGTAGATGTAC; sugars from the 5' end l3 d10 l3, all phosphorothioate, methylation of C not given here) [A04010MR]”, the “Relative mCD39 mRNA expression (compared to non-treated cells)” value (mCD39 mRNA [2]) was 0.25.

In the case of “+G*+T*+T*C*G*T*A*G*T*C*T*C*+C*+A*+G (antisense GTTCGTAGTCTCCAG; sugars from the 5' end l3 d9 l3, all phosphorothioate, methylation of C not given here) [A04003MR]”, the “Relative mCD39 mRNA expression (compared to non-treated cells)” value (mCD39 mRNA [2]) is reported as 0.07.

For `CCN(CC)c1ncnc2c1ncn2[C@@H]1O[C@H](COP(=O)(O)OP(=O)(O)C(Br)(Br)P(=O)(O)O)[C@@H](O)[C@H]1O` [ARL67156], the “absolute cell numbers of CD8+ T cells” value (human CD8+ T cells; [3]) was “no differences”, the “proliferation of CD8+ T cells” value (human CD8+ T cells; [3]) was “no differences” and the “absolute numbers of CD8+ T cells” value (human CD8+ T cells; [4]) was “significantly diminished”. The “proliferation of CD8+ T cells” value (human CD8+ T cells; [4]) was “reduced proliferation” and the “Relative ATP levels in supernatants of JIYOYE cells 30 minutes after addition of ATP (vs. Medium control)” value (hCD39) was 0.38.

With “+C*+C*+T*A*G*T*T*G*T*G*T*A*+T*+A*+C (antisense CCTAGTTGTGTATAC; sugars from the 5' end l3 d9 l3, all phosphorothioate, methylation of C not given here) [A04008MR]” the “Relative mCD39 mRNA expression (compared to non-treated cells)” value (mCD39 mRNA [2]) was 0.58.

“+T*+A*+C*A*T*T*T*C*T*T*A*C*T*C*+G*+T*+T (antisense TACATTTCTTACTCGTT; sugars from the 5' end l3 d11 l3, all phosphorothioate, methylation of C not given here) [A04033MR]” was tested, and the “Relative mCD39 mRNA expression (compared to non-treated cells)” value (mCD39 mRNA [2]) was 0.12.

For “+G*+C*+T*A*T*A*C*T*G*C*C*T*C*+T*+T*+T (antisense GCTATACTGCCTCTTT; sugars from the 5' end l3 d10 l3, all phosphorothioate, methylation of C not given here) [A04019MR]”, the “Relative mCD39 mRNA expression (compared to non-treated cells)” value (mCD39 mRNA [2]) was 0.05.

“+T*+C*+G*T*A*G*T*C*T*C*C*A*G*T*+G*+C*+C (antisense TCGTAGTCTCCAGTGCC; sugars from the 5' end l3 d11 l3, all phosphorothioate, methylation of C not given here) [A04027MR]” was tested, and the “Relative mCD39 mRNA expression (compared to non-treated cells)” value (mCD39 mRNA [2]) was 0.03.
